Holding throughout (assay type): cell-based
For experiment [1], the system named is clinical MDR-TB strain 31. The experiment can be described thus: AlamarBlue MIC (absorbance), strain panel: 31. To be noted: Mycobacterium tuberculosis, read-out: MIC, strain 31. Background: The colour change of resazurin is a common sign of viable cells or microbes.
The subject of experiment [2] is clinical MDR-TB strain 116. Put plainly: AlamarBlue MIC (absorbance), strain panel: 116. To be noted: Mycobacterium tuberculosis, read-out: MIC, strain 116.
The test system of experiment [3] is clinical strain 210. The experiment can be described thus: AlamarBlue MIC (absorbance), strain panel: 210. To be noted: Mycobacterium tuberculosis, drug resistance: None.
Experiment [4] deals with clinical MDR-TB strain 91. The experiment can be described thus: AlamarBlue MIC (absorbance), strain panel: 91. To be noted: Mycobacterium tuberculosis, read-out: MIC, strain 91.
In experiment [5] the test system is H37Rv (laboratory strain). Put plainly: AlamarBlue MIC (absorbance), strain panel: H37Rv. To be noted: Mycobacterium tuberculosis, drug resistance: None.
For experiment [6], the system named is clinical MDR-TB strain 36. The experiment can be described thus: AlamarBlue MIC (absorbance), strain panel: 36. The conditions noted are these: Mycobacterium tuberculosis, read-out: MIC, strain 36.

Values after ≈ are worked out from the molar mass of the structure shown.

With `CCCCC(=O)c1c(C)[n+]([O-])c2ccc([N+](=O)[O-])cc2[n+]1[O-]` [SRI50], the MIC (in general, the smallest concentration in the dilution series that meets the test's criterion for growth inhibition) was determined as 0.31 µg/mL (≈ 1.02 µM) in experiment [1]; 0.16 µg/mL (≈ 0.524 µM) in experiment [2]; 0.31 µg/mL (≈ 1.02 µM) in experiment [3]; 0.16 µg/mL (≈ 0.524 µM) in experiment [4]; 0.16 µg/mL (≈ 0.524 µM) in experiment [5]; 0.16 µg/mL (≈ 0.524 µM) in experiment [6].

Source of the values: publication PMC4627656, “Combining Metabolite-Based Pharmacophores with Bayesian Machine Learning Models for Mycobacterium tuberculosis Drug Discovery” (PLoS ONE, 2015).
